Measurements from PMC8071193, “Dual-Target Compounds against Type 2 Diabetes Mellitus: Proof of Concept for Sodium Dependent Glucose Transporter (SGLT) and Glycogen Phosphorylase (GP) Inhibitors” (Pharmaceuticals, 2021).
Where two headings read alike, the source gives them in different places.

Legend:
SGLT2 = target: T1, SGLT2 (Homo sapiens, UniProt P31639); experiment: SGLT2 inhibition, 2-NBDG glucose uptake in SGLT2-overexpressing TSA201 cells; format: cell-based; settings: for SGLT2 inhibition (in words): TSA201 cells, up to 1000 µM
T1 construct: host or cells: TSA201 (Human Embryonal Kidney) cells, lentiviral transduction, puromycin selection
T1 sequence (P31639 1-672): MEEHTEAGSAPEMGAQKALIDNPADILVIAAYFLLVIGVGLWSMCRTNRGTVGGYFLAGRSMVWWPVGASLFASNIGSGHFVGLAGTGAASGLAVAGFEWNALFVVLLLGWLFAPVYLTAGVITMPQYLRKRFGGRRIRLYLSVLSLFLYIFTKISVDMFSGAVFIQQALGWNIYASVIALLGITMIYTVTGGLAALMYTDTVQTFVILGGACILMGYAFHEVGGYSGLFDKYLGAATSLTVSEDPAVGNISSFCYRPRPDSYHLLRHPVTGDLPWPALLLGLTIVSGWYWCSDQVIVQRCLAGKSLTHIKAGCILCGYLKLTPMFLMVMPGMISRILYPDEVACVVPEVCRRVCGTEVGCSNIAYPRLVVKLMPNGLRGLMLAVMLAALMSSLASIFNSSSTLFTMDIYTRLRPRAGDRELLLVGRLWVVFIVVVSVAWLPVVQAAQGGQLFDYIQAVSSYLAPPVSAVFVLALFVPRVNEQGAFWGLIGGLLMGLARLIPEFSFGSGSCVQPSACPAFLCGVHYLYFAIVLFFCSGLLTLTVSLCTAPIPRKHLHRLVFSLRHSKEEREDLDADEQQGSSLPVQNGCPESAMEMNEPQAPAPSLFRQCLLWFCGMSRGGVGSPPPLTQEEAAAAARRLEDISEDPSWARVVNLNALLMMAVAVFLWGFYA
Description: (§1) Cells (100,000 cells, TSA201) were plated into each well of a 24-well plate and incubated overnight at 37 °C. […] Two wells were treated only with hexadimetrine bromide as a control. After 24 h of transfection, the medium was changed to fresh medium without antibiotics. Cells were collected and transferred into T-25 flasks after 3 days. On the fifth day, 10 µg/mL puromycin was added to select only the transfected cells. The nontransfected cells cannot survive this high concentration of antibiotic. To keep up the selection, the medium including 10 µg/mL puromycin was replaced every two days. The cells lived under puromycin pressure until the day of the experiments.
(§2) TSA201 cells (25,000) with and without overexpressed SGLT1 or 2 were put into poly-L-lysine (P5999, Sigma-Aldrich, St. Luis, MO, USA) treated wells of a 96-well plate. The next day, the cells were starved for 1 h with 90 µL glucose-free medium (D5036-10X1L Sigma-Aldrich, St. Luis, MO, USA) (with or without inhibitor). After starving, cells were treated with 100 µM 2-NBDG and incubated for 30 min (again with or without inhibitor). The incubation time of cells with possible inhibitors was 90 min altogether. After incubation, the medium was removed, the wells were washed with PBS twice, lysed with 100 µL lysis buffer (0.1 M KH2PO4 + 1% Triton-x, pH = 11), and stored at -20°C. […] Subsequently, the protein concentration was measured and NBDG uptake was normalized to protein amount.
(§3) After selecting optimal concentrations, each compound was tested at four different concentrations. […] To determine the specific effects of the compounds on SGLT1 or 2, the glucose uptake values in TSA201 cells without SGLT overexpression were subtracted from the values in TSA201 cell overexpressing SGLT. […] All calculations were prepared using the GraphPad Prism software (GraphPad Software, Inc., SanDiego, CA, USA). The data were plotted on a logarithmic scale as a function of inhibitor concentration. The IC50 values were calculated by non-linear regression analysis from sigmoidal dose-response curves. The results of kinetic experiments were calculated from at least three independent experiments. Each experiment contained four parallel samples that were averaged. The standard deviations were calculated based on the average values for the independent experiments.

SGLT1 = target: T2, SGLT1 (Homo sapiens, UniProt P13866); experiment: SGLT1 inhibition, 2-NBDG glucose uptake in SGLT1-overexpressing TSA201 cells; format: cell-based
T2 construct: host or cells: TSA201 (Human Embryonal Kidney) cells, lentiviral transduction, puromycin selection
T2 sequence (P13866 1-664): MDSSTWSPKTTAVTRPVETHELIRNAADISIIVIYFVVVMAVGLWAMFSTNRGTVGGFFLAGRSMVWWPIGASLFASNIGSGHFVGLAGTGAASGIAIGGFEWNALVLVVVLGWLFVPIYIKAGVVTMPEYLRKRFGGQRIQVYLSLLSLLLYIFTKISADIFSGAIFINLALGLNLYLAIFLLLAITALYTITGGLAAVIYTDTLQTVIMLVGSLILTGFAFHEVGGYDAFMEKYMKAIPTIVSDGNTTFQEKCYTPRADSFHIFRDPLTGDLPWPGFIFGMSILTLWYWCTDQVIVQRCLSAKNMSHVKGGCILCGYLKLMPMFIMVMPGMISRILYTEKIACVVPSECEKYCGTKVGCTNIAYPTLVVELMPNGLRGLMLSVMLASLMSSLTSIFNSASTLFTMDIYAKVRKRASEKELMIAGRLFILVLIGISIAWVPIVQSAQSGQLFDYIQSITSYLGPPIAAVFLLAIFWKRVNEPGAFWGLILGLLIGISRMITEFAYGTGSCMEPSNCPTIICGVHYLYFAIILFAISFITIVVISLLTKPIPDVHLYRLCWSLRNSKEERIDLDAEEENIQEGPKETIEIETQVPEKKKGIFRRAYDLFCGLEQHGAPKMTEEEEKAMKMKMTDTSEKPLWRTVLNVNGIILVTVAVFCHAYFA
Description: as §1, §2, §3

[1] = target: T3, rabbit muscle glycogen phosphorylase b (rmGPb) (Oryctolagus cuniculus, UniProt P00489); experiment: Glycogen phosphorylase b enzyme kinetic inhibition assay (direction of glycogen synthesis); format: biochemical; settings: Table 2; for IC50: NI: no inhibition at 625 µM
T3 construct: Glycogen phosphorylase b was isolated from rabbit skeletal muscle; from tissue; host or cells: rabbit skeletal muscle
T3 sequence (P00489 1-843): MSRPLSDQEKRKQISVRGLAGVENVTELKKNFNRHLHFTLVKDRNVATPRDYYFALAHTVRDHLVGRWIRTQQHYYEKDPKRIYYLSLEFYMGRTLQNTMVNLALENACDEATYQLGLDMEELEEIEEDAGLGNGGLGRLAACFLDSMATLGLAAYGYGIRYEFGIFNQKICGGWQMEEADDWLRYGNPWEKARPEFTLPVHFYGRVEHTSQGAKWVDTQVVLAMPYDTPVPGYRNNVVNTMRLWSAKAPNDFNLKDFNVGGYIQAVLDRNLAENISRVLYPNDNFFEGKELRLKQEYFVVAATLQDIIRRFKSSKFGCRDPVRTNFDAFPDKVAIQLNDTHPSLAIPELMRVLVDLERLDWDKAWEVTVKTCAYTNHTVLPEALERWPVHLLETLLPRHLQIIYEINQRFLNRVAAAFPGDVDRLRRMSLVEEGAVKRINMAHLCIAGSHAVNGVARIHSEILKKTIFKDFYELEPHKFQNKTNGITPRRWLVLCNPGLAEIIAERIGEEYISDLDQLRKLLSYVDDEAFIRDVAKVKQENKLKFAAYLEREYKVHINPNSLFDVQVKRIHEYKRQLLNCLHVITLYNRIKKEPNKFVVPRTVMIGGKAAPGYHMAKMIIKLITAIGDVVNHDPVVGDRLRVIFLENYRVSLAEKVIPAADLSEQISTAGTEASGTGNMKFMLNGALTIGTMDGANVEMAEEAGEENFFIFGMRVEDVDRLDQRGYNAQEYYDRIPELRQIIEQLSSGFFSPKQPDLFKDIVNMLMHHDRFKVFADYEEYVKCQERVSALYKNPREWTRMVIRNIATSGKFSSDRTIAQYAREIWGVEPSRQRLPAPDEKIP
Description: The 2-NBDG (2-deoxy-2-[(7-nitro-2,1,3-benzoxadiazol-4-yl)amino]-D-glucose, cat. 11046) was purchased from Cayman Chemical Company (Ann Arbor, MI, USA). Lentivirus for SLC5A1 and SLC5A2 (NM_000343 for SGLT1, and NM-003041 for SGLT2) were obtained from Origene (Rockville, MD, USA). These expression vectors contain a puromycin resistance gene. […] CyQUANT^TM Cell Proliferation Assay Kit (2036547) was from Invitrogen (Carlsbad, CA, USA). Glycogen phosphorylase b was isolated from rabbit skeletal muscle according to the method of Fischer and Krebs.
Enzyme activity in the direction of glycogen synthesis was assayed. Kinetic data were collected using the muscle phosphorylase b (dephosphorylated, GPb) isoform. […] Enzymatic activities were presented in the form of a double-reciprocal plot (Lineweaver-Burk). The plots were analysed by a non-linear data analysis program. The inhibitor constants (Ki) were determined by secondary plots, replotting the slopes from the Lineweaver-Burk plot against the inhibitor concentrations. The means of standard errors for all calculated kinetic parameters averaged to less than 10% [78, 79].

[2] = Table 2, TSA-201 cells, NI: no inhibition at 1000 µM, compounds 1-2 used as controls for in-house assay
[3] = Table 3, TSA-201 cells, NI: no inhibition at 1000 µM

IC50 (SGLT2)	IC50 (SGLT1)	SGLT2 inhibition (in words) (SGLT2)	IC50 (SGLT1; [2])	IC50 [1]	SMILES	further results
23.2 ± 1.86 µM	101 ± 23.5 µM	–	–	–	OC[C@H]1O[C@@H](n2cc(Cc3ccccc3)nn2)[C@H](O)[C@@H](O)[C@@H]1O [compound 20]	–
3.57 ± 0.42 µM	11.7 ± 2.48 µM	–	–	–	OC[C@H]1O[C@@H](c2nc(Cc3ccccc3)c[nH]2)[C@H](O)[C@@H](O)[C@@H]1O [compound 18, 4(5)-Benzyl-2-(β-D-glucopyranosyl)imidazole]	times more effective (SGLT2 inhibition) (SGLT2; compared to 1,2,4-triazole 19a): ~ 20 times; inhibition at 625 µM ([1]; at 625 µM): 12%
–	–	inactive	> 1000 µM	> 625 µM	OC[C@H]1O[C@@H](c2nccc(Cc3ccc(Cl)cc3)n2)[C@H](O)[C@@H](O)[C@@H]1O [16c, 4-(4-Chlorobenzyl)-2-(β-D-glucopyranosyl)pyrimidine]	IC50 (SGLT2; [2]): > 1000 µM
2.44 ± 0.85 µM	35.5 ± 9.56 µM	–	–	> 625 µM	OC[C@H]1O[C@@H](c2nc(Cc3ccccc3)n(-c3ccccc3)n2)[C@H](O)[C@@H](O)[C@@H]1O [19c]	–

Continued, compound first:

SMILES	IC50 (SGLT2)	IC50 (SGLT1)	SGLT2 inhibition (in words) (SGLT2)	IC50 (SGLT1; [2])	IC50 [1]	further results
OC[C@H]1O[C@@H](c2nnc(Cc3ccc(Cl)cc3)o2)[C@H](O)[C@@H](O)[C@@H]1O [13c, 5-(4-Chlorobenzyl)-2-(β-D-glucopyranosyl)-1,3,4-oxadiazole]	–	–	complete loss of the inhibition	> 1000 µM	> 625 µM	IC50 (SGLT2; [2]): > 1000 µM
OC[C@H]1O[C@@H](c2nc(-c3ccc4ccccc4c3)n[nH]2)[C@H](O)[C@@H](O)[C@@H]1O [25b]	–	–	–	–	–	IC50 (SGLT2; [3]): 17.7 ± 2.32 µM; IC50 (SGLT1; [3]): 13 ± 2.88 µM
COc1ccc(Cc2ccnc([C@@H]3O[C@H](CO)[C@@H](O)[C@H](O)[C@H]3O)n2)cc1 [16b, 2-(β-D-Glucopyranosyl)-4-(4-methoxybenzyl)pyrimidine]	11.6 ± 3.19 µM	–	inhibitory activity in the micromolar range	> 1000 µM	> 625 µM	–
OC[C@H]1O[C@@H](c2nnc(Cc3ccccc3)o2)[C@H](O)[C@@H](O)[C@@H]1O [13a, 5-Benzyl-2-(β-D-glucopyranosyl)-1,3,4-oxadiazole]	2.21 ± 0.58 µM	23.7 ± 6.14 µM	showed inhibitory effects	–	> 625 µM	–
OC[C@H]1O[C@@H](c2nnc(-c3ccccc3)[nH]2)[C@H](O)[C@@H](O)[C@@H]1O [25a]	–	–	–	–	–	IC50 (SGLT2; [3]): 15 ± 2.74 µM; IC50 (SGLT1; [3]): 125 ± 46.5 µM
OC[C@H]1O[C@@H](c2noc(Cc3ccc(Cl)cc3)n2)[C@H](O)[C@@H](O)[C@@H]1O [10c, 5-(4-Chlorobenzyl)-3-(β-D-glucopyranosyl)-1,2,4-oxadiazole]	–	–	complete loss of the inhibition	> 1000 µM	> 625 µM	IC50 (SGLT2; [2]): > 1000 µM
OC[C@H]1O[C@@H](c2nc(-c3ccccc3)cs2)[C@H](O)[C@@H](O)[C@@H]1O [23a]	–	–	–	–	–	IC50 (SGLT2; [3]): > 1000 µM; IC50 (SGLT1; [3]): > 1000 µM
